Experiment in all cases: biochemical
Parameters in all cases: KINOMEscan competition binding panel (Eurofins DiscoverX), single concentration, % inhibition
Settings in all cases: read-out: 7 at 1 µM % inhibition

For test [1], the target named is T1, ABL1(E255K)-phosphorylated (Homo sapiens, UniProt P00519, E255K).
T1 construct: phosphorylated
The procedure, abridged: (§1)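 Binding was profiled in the KINOMEscan panel of over 400 human kinases, with each compound tested at a single concentration of 1 µM to map selectivity.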

Test [2] addresses T2, ABL1(H396P)-nonphosphorylated (Homo sapiens, UniProt P00519, H396P).
T2 construct: nonphosphorylated
In a few lines:
as §1

The target in a further test is CLK3 (Homo sapiens, UniProt P49761). The procedure, abridged:
as §1

Another test deals with T3, DMPK2 (Homo sapiens, UniProt Q6DT37).
T3 construct: gene CDC42BPG
In a few lines: as §1

A further test concerns the target EGFR(E746-A750del) (Homo sapiens, UniProt P00533, DEL746-750). In a few lines: as §1
Another test deals with EGFR(L861Q) (Homo sapiens, UniProt P00533, L861Q). The procedure, abridged: as §1
EGFR(L861Q), sequence (P00533 whole entry L861Q): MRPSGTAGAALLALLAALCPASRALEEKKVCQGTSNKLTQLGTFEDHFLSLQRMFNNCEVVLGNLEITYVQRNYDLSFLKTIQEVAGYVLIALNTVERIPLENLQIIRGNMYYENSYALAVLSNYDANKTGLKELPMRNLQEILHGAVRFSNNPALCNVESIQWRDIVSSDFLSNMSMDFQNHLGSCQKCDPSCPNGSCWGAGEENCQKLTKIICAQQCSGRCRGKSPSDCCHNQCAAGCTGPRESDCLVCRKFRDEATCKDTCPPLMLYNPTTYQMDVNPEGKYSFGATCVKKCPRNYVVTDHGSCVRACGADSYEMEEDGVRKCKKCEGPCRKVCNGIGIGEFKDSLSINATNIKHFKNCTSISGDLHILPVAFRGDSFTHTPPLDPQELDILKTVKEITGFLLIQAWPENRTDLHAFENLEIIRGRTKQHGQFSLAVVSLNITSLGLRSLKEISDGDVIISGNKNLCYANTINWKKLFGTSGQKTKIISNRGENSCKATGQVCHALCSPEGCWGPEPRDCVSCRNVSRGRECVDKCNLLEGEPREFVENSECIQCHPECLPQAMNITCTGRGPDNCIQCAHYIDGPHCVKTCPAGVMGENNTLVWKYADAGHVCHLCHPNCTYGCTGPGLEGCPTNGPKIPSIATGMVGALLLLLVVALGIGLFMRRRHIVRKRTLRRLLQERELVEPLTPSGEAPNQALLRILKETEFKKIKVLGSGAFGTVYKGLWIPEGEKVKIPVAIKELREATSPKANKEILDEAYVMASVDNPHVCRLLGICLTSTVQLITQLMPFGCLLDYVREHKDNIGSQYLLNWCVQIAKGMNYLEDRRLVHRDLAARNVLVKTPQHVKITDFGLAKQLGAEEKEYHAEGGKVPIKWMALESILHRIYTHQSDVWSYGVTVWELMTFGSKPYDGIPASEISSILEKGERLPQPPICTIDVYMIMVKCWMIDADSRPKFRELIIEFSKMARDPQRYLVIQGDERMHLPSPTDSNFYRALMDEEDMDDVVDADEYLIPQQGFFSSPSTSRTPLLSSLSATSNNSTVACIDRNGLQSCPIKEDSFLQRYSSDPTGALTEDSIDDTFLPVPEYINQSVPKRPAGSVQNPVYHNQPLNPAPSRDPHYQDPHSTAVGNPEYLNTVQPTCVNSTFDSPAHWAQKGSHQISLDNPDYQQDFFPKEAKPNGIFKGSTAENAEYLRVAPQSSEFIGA
Another test has as its target T4, ERK5 (Homo sapiens, UniProt Q13164).
T4 construct: gene MAPK7
The procedure, abridged: as §1

In another test the target is T5, IKK-beta (Homo sapiens, UniProt O14920).
T5 construct: gene IKBKB
T5 sequence (O14920 whole entry): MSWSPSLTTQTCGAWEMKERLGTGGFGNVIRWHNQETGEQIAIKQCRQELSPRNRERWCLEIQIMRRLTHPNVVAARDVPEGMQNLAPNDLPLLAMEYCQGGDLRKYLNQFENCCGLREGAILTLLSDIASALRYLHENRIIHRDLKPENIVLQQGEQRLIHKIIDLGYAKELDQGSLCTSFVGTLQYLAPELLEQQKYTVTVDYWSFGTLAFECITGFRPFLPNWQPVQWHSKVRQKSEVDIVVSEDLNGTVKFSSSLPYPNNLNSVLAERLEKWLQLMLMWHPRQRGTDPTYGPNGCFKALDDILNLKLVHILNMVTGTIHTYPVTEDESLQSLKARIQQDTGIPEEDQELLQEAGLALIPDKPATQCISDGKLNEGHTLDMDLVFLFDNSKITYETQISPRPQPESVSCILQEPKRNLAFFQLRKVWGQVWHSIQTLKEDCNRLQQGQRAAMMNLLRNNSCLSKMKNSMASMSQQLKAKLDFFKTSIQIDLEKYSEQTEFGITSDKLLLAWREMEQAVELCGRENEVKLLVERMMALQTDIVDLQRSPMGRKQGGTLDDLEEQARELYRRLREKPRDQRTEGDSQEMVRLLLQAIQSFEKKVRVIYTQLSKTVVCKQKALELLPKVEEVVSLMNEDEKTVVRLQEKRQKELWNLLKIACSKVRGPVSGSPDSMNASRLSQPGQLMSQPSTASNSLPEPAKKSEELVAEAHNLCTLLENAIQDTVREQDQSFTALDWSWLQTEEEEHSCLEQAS
In a few lines: as §1

A further test has as its target KIT (Homo sapiens, UniProt P10721). In a few lines:
as §1

Another test concerns the target KIT(A829P) (Homo sapiens, UniProt P10721, A829P). The procedure, abridged: as §1
The target of a further test is NEK2 (Homo sapiens, UniProt P51955). The procedure, abridged: as §1
A further test has as its target PAK2 (Homo sapiens, UniProt Q13177). The procedure, abridged: as §1
The target in another test is PIK3CA(Q546K) (Homo sapiens, UniProt P42336, Q546K). The procedure, abridged:
as §1

A further test concerns the target PIM3 (Homo sapiens, UniProt Q86V86). The procedure, abridged:
as §1

For a further test, the target named is PLK4 (Homo sapiens, UniProt O00444). In a few lines: as §1
In test [3] the target is T6, RSK1(Kin.Dom.1-N-terminal) (Homo sapiens, UniProt Q15418).
T6 construct: gene RPS6KA1; Kin.Dom.1-N-terminal
The procedure, abridged: as §1

Another test addresses SGK2 (Homo sapiens, UniProt Q9HBY8). In a few lines: as §1
The target in the next test is SLK (Homo sapiens, UniProt Q9H2G2). In a few lines:
as §1

For the next test, the target named is STK39 (Homo sapiens, UniProt Q9UEW8). In a few lines:
as §1

Another test deals with TNIK (Homo sapiens, UniProt Q9UKE5). The procedure, abridged: as §1
Another test deals with TNK1 (Homo sapiens, UniProt Q13470). In a few lines: as §1
The next test has as its target T7, VPS34 (Homo sapiens, UniProt Q8NEB9).
T7 construct: gene PIK3C3
The procedure, abridged: as §1

In another test the target is T8, YANK1 (Homo sapiens, UniProt Q8WU08).
T8 construct: gene STK32A
The procedure, abridged:
as §1

A further test has as its target T9, p38-beta (Homo sapiens, UniProt Q15759).
T9 construct: gene MAPK11
In a few lines: as §1

The structures appear in SMILES notation.

CLK3, sequence (P49761 whole entry): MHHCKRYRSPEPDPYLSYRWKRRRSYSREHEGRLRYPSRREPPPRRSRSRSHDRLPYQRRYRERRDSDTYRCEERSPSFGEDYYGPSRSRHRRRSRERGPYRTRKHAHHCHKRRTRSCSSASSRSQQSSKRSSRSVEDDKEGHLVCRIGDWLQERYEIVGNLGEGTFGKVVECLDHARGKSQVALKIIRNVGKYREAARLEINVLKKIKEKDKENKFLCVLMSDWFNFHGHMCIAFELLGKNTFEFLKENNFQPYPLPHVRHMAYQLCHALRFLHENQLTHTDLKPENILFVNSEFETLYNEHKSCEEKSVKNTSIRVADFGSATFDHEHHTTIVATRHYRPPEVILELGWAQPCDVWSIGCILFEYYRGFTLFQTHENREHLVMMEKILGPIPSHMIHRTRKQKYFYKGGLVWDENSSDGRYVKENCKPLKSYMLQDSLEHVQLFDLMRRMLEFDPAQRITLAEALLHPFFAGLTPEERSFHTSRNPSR
PIK3CA(Q546K), sequence (P42336 whole entry Q546K): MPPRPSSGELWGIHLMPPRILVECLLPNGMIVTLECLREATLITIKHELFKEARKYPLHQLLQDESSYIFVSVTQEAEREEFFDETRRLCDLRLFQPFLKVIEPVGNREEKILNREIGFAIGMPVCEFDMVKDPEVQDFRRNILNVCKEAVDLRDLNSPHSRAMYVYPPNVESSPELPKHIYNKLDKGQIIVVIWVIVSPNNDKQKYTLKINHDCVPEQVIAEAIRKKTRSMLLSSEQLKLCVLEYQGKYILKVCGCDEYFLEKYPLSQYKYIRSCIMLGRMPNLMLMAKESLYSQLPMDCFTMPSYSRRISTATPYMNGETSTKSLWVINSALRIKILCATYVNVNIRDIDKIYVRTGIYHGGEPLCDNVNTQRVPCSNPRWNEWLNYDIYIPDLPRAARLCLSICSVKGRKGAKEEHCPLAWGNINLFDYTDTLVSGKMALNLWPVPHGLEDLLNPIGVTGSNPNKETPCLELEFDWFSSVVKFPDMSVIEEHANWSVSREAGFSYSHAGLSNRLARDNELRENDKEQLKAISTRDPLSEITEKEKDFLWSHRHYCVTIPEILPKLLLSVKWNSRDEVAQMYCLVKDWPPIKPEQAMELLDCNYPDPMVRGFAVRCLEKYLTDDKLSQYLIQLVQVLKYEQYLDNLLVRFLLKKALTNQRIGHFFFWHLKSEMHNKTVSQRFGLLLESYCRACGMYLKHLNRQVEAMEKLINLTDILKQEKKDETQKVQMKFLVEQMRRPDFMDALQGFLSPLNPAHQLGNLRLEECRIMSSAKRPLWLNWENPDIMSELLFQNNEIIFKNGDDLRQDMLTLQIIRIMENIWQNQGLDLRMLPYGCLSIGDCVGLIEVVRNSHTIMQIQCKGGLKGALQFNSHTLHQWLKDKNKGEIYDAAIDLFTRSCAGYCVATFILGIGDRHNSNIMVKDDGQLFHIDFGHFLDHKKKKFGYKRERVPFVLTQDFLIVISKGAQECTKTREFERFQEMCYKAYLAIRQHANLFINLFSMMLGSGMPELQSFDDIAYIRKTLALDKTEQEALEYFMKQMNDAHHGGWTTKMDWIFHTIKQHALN
T7 sequence (Q8NEB9 whole entry): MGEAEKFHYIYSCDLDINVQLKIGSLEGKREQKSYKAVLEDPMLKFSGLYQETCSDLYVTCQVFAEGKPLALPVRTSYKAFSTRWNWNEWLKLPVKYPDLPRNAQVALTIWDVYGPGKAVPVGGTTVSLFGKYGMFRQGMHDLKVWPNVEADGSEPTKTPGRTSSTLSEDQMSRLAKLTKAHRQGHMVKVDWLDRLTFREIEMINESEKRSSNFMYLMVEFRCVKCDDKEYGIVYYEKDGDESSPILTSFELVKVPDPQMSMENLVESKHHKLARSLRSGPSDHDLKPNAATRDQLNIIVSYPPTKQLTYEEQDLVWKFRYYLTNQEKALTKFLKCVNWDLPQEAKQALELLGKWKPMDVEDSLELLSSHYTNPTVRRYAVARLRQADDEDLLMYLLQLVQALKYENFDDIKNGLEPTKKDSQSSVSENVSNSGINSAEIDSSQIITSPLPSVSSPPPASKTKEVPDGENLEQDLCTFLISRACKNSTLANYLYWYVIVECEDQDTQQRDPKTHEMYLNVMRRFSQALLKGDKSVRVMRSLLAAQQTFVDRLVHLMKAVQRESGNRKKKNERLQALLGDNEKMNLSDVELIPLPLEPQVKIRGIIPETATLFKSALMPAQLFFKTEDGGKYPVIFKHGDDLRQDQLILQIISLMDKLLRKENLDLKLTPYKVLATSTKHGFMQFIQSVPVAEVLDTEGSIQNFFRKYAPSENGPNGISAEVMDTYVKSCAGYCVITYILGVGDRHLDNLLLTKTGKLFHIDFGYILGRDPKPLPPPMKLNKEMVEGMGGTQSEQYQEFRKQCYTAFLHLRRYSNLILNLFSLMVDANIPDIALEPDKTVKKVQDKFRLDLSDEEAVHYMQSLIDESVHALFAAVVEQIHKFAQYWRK
SGK2, sequence (Q9HBY8 whole entry): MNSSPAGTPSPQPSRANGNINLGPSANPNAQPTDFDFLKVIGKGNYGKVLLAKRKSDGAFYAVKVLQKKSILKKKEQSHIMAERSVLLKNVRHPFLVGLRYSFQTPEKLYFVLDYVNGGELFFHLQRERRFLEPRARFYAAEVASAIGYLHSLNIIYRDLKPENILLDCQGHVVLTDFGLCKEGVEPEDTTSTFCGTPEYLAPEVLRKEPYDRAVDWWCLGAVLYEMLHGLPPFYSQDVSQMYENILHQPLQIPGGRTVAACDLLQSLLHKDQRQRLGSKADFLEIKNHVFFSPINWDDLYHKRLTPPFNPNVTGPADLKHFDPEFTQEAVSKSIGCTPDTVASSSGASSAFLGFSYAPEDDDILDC

For the compound `CNS(=O)(=O)c1ccc(N(C)C)c(Nc2ncnc3cc(OC)c(OC)cc23)c1` [compound 7, 3-((6,7-dimethoxyquinazolin-4-yl)amino)-4-(dimethylamino)-N-methylbenzenesulfonamide], the inhibition at 1 µM in [1] turned out to be 34%; in test [2] it was 73%; at CLK3 it was 18%; on DMPK2 it was 0%; at EGFR(E746-A750del), 25%; at EGFR(L861Q), 0%. Besides, the inhibition at 1 µM at ERK5 was 6%; at IKK-beta it was 68%; on KIT, 13%; at KIT(A829P), 61%; on NEK2 it was 2%; at PAK2 it was 0%. Moreover, the inhibition at 1 µM at PIK3CA(Q546K) stood at 36%; at PIM3, 0%; at PLK4 it was 7%; in test [3], 2%; at SGK2, 0%; on SLK, 0%. In addition, the inhibition at 1 µM on STK39 is 8%; on TNIK, 7%; at TNK1, 37%; at VPS34, 18%; at YANK1, 17%; on p38-beta it was 0%.

In general, inhibition refers to the percentage by which the read-out fell short of the control.

(Values after publication PMC7180948, “New Insights into 4-Anilinoquinazolines as Inhibitors of Cardiac Troponin I–Interacting Kinase (TNNi3K)” (Molecules, 2020).)
